Test results: ChEMBL document CHEMBL3991601, “The target landscape of clinical kinase drugs” (Science, 2017)
pKd: −log10 of the molar value. Activity calls are given as the source filed them. On the calls: in the data inactive means no Kd found up to 30 µM.

Legend:
[1] = target: T1, Long-chain-fatty-acid--CoA ligase 5 (Homo sapiens, UniProt Q9ULC5)
T1 sequence (Q9ULC5 whole entry): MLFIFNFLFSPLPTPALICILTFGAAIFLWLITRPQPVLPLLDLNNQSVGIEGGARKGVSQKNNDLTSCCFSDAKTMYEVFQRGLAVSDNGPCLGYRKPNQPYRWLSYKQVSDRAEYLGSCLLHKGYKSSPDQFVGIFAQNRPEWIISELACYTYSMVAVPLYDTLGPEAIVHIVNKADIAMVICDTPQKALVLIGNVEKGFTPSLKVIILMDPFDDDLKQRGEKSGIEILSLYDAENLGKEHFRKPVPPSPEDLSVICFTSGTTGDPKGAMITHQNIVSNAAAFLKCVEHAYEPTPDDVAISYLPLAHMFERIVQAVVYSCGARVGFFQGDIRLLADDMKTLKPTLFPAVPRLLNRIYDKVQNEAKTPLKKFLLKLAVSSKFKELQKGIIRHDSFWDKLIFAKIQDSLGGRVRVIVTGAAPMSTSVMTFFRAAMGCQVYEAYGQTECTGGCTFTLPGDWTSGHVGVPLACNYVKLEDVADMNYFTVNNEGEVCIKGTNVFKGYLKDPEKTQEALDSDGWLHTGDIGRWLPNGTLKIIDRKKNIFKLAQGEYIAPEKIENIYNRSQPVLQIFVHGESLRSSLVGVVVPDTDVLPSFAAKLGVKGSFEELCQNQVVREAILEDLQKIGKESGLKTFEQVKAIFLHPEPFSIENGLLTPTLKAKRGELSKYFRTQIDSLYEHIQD

[2] = target: Serine/threonine-protein kinase ATR (Homo sapiens, UniProt Q13535)
Serine/threonine-protein kinase ATR, sequence (Q13535 whole entry): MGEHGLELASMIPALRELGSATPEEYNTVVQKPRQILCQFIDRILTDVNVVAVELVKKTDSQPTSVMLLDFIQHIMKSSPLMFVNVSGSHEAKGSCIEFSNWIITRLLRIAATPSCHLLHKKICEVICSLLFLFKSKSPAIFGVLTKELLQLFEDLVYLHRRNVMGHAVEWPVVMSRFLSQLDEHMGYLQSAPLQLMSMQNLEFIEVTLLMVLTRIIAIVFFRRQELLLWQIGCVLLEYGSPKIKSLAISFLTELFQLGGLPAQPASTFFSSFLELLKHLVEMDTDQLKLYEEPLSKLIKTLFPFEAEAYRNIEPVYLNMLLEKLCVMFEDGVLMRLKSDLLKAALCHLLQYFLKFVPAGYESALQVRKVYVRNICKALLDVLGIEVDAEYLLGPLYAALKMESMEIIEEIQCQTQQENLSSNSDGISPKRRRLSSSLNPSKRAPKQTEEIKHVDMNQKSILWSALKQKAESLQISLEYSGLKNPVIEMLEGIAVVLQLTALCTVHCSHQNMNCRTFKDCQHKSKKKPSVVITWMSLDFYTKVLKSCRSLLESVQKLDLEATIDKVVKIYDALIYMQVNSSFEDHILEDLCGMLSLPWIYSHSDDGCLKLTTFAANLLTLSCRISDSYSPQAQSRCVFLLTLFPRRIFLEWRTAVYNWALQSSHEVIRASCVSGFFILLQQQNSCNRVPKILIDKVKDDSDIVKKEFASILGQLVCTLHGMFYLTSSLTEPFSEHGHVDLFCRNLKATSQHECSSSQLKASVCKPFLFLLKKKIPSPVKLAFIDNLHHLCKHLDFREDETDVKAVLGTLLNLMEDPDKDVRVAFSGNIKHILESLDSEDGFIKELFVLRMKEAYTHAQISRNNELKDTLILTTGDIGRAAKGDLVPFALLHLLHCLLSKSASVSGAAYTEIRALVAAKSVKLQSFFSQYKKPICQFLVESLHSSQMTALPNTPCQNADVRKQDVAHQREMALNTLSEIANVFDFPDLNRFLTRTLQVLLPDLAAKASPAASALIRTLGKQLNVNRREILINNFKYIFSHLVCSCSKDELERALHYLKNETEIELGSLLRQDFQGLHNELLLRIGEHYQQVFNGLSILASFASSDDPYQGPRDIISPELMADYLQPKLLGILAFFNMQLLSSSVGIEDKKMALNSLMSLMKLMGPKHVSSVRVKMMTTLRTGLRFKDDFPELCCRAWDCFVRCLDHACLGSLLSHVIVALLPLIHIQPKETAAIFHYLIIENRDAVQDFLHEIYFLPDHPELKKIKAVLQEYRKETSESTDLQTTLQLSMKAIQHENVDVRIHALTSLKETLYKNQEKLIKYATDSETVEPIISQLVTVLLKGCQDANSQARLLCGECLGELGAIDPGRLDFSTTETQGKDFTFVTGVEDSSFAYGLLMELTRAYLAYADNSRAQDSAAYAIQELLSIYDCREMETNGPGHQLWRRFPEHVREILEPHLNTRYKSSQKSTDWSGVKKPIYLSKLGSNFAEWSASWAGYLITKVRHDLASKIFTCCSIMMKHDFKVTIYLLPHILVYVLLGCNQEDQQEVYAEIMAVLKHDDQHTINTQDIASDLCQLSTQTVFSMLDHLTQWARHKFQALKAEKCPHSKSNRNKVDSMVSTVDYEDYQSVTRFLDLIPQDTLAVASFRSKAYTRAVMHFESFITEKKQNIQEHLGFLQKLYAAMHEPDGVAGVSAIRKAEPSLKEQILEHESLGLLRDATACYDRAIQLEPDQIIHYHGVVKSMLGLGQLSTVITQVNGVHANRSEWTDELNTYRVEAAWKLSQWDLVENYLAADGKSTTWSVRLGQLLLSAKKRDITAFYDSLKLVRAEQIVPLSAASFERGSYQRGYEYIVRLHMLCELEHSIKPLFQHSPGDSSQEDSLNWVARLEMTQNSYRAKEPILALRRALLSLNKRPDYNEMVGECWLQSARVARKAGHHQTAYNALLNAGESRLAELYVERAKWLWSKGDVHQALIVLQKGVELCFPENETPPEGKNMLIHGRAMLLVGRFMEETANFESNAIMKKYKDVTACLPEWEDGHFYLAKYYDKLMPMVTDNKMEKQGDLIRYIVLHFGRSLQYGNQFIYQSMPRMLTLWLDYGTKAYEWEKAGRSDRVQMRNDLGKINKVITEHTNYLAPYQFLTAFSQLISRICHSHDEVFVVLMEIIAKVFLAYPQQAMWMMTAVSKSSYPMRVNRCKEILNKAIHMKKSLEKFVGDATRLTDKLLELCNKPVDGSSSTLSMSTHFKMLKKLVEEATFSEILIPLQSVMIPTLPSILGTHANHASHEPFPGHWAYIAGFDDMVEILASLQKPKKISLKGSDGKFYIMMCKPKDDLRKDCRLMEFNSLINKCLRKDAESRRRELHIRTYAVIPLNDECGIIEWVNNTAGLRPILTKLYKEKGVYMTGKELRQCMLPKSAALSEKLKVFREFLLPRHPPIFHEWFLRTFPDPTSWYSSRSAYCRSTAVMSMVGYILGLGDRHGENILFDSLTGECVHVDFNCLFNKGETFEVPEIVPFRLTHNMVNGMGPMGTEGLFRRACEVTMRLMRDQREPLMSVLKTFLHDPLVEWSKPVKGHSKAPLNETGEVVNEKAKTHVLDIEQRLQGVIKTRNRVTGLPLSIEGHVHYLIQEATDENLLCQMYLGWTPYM

[3] = target: Dual specificity protein kinase CLK4 (Homo sapiens, UniProt Q9HAZ1)
[4] = target: T2, Electron transfer flavoprotein subunit beta (Homo sapiens, UniProt P38117)
T2 sequence (P38117 whole entry): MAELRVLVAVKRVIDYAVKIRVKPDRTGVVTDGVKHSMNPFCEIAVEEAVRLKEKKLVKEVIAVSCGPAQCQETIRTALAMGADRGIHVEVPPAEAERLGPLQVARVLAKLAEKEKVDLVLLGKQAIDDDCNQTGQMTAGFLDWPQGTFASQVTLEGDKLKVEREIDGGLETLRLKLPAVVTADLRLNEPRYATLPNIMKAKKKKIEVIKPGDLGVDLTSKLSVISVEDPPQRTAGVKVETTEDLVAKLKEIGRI

[5] = target: T3, Isoleucine--tRNA ligase, mitochondrial (Homo sapiens, UniProt Q9NSE4)
T3 sequence (Q9NSE4 whole entry): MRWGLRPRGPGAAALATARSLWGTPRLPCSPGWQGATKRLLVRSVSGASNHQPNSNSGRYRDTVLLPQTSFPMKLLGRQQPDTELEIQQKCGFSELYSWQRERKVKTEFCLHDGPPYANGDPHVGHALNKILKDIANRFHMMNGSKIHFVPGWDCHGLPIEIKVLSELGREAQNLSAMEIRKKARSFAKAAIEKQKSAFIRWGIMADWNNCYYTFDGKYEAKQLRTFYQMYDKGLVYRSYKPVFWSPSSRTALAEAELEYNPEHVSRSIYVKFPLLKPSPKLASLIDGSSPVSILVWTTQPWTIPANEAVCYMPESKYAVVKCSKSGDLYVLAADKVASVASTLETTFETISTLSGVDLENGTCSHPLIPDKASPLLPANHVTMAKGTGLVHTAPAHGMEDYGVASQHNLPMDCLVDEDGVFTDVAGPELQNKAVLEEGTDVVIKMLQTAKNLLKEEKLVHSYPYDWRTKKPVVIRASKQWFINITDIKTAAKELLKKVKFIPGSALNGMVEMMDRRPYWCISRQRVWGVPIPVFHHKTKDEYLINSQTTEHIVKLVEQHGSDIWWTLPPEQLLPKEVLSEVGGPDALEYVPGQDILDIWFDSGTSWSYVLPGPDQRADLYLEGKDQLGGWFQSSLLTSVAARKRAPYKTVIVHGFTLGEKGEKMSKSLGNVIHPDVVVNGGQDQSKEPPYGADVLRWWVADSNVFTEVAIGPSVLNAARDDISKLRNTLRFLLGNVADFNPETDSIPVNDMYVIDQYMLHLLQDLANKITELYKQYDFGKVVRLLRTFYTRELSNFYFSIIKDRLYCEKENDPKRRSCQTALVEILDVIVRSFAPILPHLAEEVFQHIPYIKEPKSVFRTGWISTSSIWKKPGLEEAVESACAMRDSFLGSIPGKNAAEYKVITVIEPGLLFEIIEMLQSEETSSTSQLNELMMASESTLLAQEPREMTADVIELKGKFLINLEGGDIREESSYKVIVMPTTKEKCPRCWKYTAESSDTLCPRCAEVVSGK

[6] = target: Choline-phosphate cytidylyltransferase A (Homo sapiens, UniProt P49585)
Choline-phosphate cytidylyltransferase A, sequence (P49585 whole entry): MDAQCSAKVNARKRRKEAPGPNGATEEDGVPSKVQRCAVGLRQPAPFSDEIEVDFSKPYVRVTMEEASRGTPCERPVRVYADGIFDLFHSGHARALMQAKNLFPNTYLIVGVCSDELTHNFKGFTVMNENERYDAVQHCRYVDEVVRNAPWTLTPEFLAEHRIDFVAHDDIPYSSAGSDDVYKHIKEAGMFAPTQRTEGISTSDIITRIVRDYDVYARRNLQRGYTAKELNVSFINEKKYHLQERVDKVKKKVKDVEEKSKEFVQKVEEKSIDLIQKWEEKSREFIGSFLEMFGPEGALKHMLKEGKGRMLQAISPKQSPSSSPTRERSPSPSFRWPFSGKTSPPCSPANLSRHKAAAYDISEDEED

[7] = target: Serine/threonine-protein kinase N3 (Homo sapiens, UniProt Q6P5Z2)
Serine/threonine-protein kinase N3, sequence (Q6P5Z2 whole entry): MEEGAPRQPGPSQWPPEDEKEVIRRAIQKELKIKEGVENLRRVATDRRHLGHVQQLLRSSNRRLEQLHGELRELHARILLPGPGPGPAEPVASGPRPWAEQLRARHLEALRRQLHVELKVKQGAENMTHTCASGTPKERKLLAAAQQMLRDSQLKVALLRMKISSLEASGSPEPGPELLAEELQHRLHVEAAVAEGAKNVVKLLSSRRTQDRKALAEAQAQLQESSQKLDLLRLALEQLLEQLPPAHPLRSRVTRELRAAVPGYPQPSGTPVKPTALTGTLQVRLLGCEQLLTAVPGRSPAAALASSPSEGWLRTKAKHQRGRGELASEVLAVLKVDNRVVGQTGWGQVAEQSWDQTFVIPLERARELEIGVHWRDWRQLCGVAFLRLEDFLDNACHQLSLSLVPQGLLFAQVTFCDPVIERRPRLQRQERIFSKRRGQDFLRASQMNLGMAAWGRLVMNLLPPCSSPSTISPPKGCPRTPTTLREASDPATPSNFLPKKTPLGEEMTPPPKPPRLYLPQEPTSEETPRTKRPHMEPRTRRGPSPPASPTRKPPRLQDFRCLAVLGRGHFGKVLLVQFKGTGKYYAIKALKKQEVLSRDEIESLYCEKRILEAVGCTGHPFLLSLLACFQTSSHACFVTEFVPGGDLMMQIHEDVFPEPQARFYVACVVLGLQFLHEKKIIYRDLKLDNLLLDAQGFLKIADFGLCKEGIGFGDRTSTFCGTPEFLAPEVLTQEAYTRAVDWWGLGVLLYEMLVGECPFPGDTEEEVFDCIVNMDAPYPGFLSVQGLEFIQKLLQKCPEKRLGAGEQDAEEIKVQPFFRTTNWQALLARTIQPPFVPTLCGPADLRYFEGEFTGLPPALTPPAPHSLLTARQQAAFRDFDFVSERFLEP

[8] = target: Serine/threonine-protein kinase 24 (Homo sapiens, UniProt Q9Y6E0)
Serine/threonine-protein kinase 24, sequence (Q9Y6E0 whole entry): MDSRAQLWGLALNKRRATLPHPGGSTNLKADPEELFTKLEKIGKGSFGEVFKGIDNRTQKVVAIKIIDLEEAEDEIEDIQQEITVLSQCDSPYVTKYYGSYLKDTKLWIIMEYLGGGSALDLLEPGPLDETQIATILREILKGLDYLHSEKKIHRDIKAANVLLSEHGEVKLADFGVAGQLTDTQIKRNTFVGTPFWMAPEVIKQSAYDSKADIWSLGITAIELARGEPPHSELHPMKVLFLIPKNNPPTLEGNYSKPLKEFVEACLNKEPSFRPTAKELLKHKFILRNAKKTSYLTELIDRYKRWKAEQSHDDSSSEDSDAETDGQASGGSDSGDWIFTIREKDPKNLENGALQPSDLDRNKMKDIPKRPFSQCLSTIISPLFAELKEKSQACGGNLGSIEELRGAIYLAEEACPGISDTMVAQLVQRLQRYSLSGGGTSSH

[9] = target: Serine/threonine-protein kinase 38-like (Homo sapiens, UniProt Q9Y2H1)
Serine/threonine-protein kinase 38-like, sequence (Q9Y2H1 whole entry): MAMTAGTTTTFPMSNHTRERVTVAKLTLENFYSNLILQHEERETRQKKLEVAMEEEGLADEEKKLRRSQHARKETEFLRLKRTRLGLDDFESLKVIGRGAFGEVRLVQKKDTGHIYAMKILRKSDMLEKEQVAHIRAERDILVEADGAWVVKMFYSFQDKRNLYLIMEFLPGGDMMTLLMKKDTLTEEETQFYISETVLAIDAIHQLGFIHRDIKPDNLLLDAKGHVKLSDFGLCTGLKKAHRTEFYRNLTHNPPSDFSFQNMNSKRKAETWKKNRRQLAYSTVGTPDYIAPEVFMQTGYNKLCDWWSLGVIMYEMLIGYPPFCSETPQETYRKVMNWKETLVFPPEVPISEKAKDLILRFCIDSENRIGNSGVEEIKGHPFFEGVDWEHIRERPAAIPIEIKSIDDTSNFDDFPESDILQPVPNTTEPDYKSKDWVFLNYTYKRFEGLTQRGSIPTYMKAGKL

[10] = target: T4, Dual specificity mitogen-activated protein kinase kinase 4 (Homo sapiens, UniProt P45985)
T4 sequence (P45985 whole entry): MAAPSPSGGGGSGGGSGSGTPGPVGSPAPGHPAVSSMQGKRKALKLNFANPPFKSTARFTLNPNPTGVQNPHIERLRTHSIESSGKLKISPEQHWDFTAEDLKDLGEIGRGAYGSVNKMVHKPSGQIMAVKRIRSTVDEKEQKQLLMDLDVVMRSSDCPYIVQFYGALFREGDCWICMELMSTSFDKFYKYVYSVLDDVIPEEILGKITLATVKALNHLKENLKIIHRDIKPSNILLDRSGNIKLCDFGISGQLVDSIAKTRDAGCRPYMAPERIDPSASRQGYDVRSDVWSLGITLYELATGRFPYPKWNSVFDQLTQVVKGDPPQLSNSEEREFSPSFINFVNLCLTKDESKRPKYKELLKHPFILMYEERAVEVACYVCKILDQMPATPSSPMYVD

Cc1nc2cc(-c3nn(C(C)C)c4ncnc(N)c34)ccc2o1
Kd [1]: > 30 µM (inactive) | Kd [2]: > 30 µM (inactive) | Kd [3]: > 30 µM (inactive) | Kd [4]: > 30 µM (inactive) | Kd [5]: > 30 µM (inactive) | Kd [6]: > 30 µM (inactive) | pKd [7]: 7.89 | Kd [8]: > 30 µM (inactive) | Kd [9]: > 30 µM (inactive)

Nc1ncnc2c1c(-c1cccc(OCc3ccccc3)c1)cn2[C@H]1C[C@@H](CN2CCC2)C1 [AEW-541]
Kd [1]: > 30 µM (inactive) | pKd [2]: 8.30 | Kd [10]: > 30 µM (inactive) | pKd [7]: 7.64 | Kd [9]: > 30 µM (inactive)

COc1c(OCCCN2CCOCC2)ccc2c1N=C(NC(=O)c1cnc(N)nc1)N1CCN=C21 [COPANLISIB]
Kd [1]: > 30 µM (inactive) | Kd [2]: > 30 µM (inactive) | Kd [3]: > 30 µM (inactive) | Kd [4]: > 30 µM (inactive) | Kd [10]: > 30 µM (inactive) | Kd [7]: > 30 µM (inactive) | Kd [8]: > 30 µM (inactive) | Kd [9]: > 30 µM (inactive)

COCC(=O)NC/C=C/c1ccc2ncnc(Nc3ccc(Oc4ccc(C)nc4)c(C)c3)c2c1 [CP-724714]
Kd [1]: > 30 µM (inactive) | Kd [2]: > 30 µM (inactive) | Kd [3]: > 30 µM (inactive) | Kd [4]: > 30 µM (inactive) | Kd [5]: > 30 µM (inactive) | Kd [6]: > 30 µM (inactive) | Kd [7]: > 30 µM (inactive) | Kd [9]: > 30 µM (inactive)

CNC(=O)c1nn(C)c2c1C(C)(C)Cc1cnc(Nc3ccc(N4CCN(C)CC4)cc3)nc1-2 [MILCICLIB]
Kd [1]: > 30 µM (inactive) | Kd [2]: > 30 µM (inactive) | Kd [3]: 0.018 µM (active) | Kd [10]: > 30 µM (inactive) | Kd [6]: > 30 µM (inactive) | Kd [7]: > 30 µM (inactive) | Kd [8]: > 30 µM (inactive) | Kd [9]: > 30 µM (inactive)

NC(=O)c1c(OCc2c(F)cc(Br)cc2F)nsc1NC(=O)NCCCCN1CCCC1 [OSI-632]
Kd [1]: > 30 µM (inactive) | Kd [2]: > 30 µM (inactive) | Kd [4]: > 30 µM (inactive) | Kd [10]: > 30 µM (inactive) | Kd [7]: > 30 µM (inactive) | Kd [9]: > 30 µM (inactive)

CCOc1cc2ncc(C#N)c(Nc3ccc(F)c(Cl)c3)c2cc1NC(=O)/C=C/CN(C)C [PELITINIB]
Kd [4]: > 30 µM (inactive) | Kd [5]: > 30 µM (inactive) | Kd [10]: > 30 µM (inactive) | Kd [7]: > 30 µM (inactive) | Kd [9]: > 30 µM (inactive)

CCCCCCCCCCCCCCCCCCOP(=O)([O-])OC1CC[N+](C)(C)CC1 [PERIFOSINE]
Kd [1]: > 30 µM (inactive) | Kd [4]: > 30 µM (inactive) | Kd [5]: > 30 µM (inactive) | Kd [6]: > 30 µM (inactive) | Kd [9]: > 30 µM (inactive)

Cc1nc(Nc2n[nH]c3c2CN(C(=O)N[C@H](CN(C)C)c2ccccc2)C3(C)C)c2sccc2n1 [PF-03758309]
Kd [1]: > 30 µM (inactive) | Kd [2]: > 30 µM (inactive) | Kd [3]: 0.013 µM (active) | Kd [4]: > 30 µM (inactive) | Kd [5]: > 30 µM (inactive) | Kd [10]: > 30 µM (inactive) | Kd [7]: > 30 µM (inactive) | Kd [9]: > 30 µM (inactive)

CC(=O)NCC(=O)N1[C@@H]2CC[C@H]1c1ccc(Nc3ncc(C(F)(F)F)c(NC4CCC4)n3)cc12 [PF-03814735]
Kd [1]: > 30 µM (inactive) | Kd [10]: > 30 µM (inactive) | Kd [6]: > 30 µM (inactive) | pKd [8]: 7.72 | Kd [9]: > 30 µM (inactive)

CO[C@H]1C[C@@H]2CC[C@@H](C)[C@@](O)(O2)C(=O)C(=O)N2CCCC[C@H]2C(=O)O[C@H]([C@H](C)C[C@@H]2CC[C@@H](OP(C)(C)=O)[C@H](OC)C2)CC(=O)[C@H](C)/C=C(\C)[C@@H](O)[C@@H](OC)C(=O)[C@H](C)C[C@H](C)/C=C/C=C/C=C/1C [RIDAFOROLIMUS]
Kd [1]: > 30 µM (inactive) | Kd [3]: > 30 µM (inactive) | Kd [4]: > 30 µM (inactive) | Kd [10]: > 30 µM (inactive) | Kd [7]: > 30 µM (inactive) | Kd [8]: > 30 µM (inactive) | Kd [9]: > 30 µM (inactive)

CCS(=O)(=O)c1cccc(-c2cc(C(=O)NC3CCN(C)CC3)c(C)c3[nH]c4ncc(C)cc4c23)c1 [TAK-901]
Kd [1]: > 30 µM (inactive) | Kd [10]: > 30 µM (inactive) | Kd [8]: > 30 µM (inactive) | Kd [9]: > 30 µM (inactive)

C[C@@H](NC(=O)c1ncnc(N)c1Cl)c1ncc(C(=O)Nc2cc(C(F)(F)F)c(Cl)cn2)s1 [TOVORAFENIB]
Kd [2]: > 30 µM (inactive) | Kd [3]: > 30 µM (inactive) | pKd [10]: 6.84 | Kd [6]: > 30 µM (inactive) | Kd [7]: > 30 µM (inactive) | Kd [8]: > 30 µM (inactive) | Kd [9]: > 30 µM (inactive)
